In ChEMBL document CHEMBL3875176, “Synthesis and evaluation of in vitro antiproliferative activity of new ethyl 3-(arylethynyl)quinoxaline-2-carboxylate and pyrido[4,3-b]quinoxalin-1(2H)-one derivatives” (Eur J Med Chem, 2016):

What was measured:
[1] = Antiproliferative activity against human A549 cells after 72 hrs by MTT assay; assay type: functional, cell-based; conditions: A549, 72 h
[2] = Antiproliferative activity against human U87MG cells after 72 hrs by MTT assay; assay type: functional, cell-based, U-87MG ATCC; conditions: U-87 MG

Row | SMILES | IC50 [1] | IC50 [2]
1 | CCOC(=O)c1nc2ccccc2nc1C#Cc1ccccc1 | 3.3 µM | 3.3 µM
2 | O=c1c2nc3ccccc3nc2cc(-c2ccccc2)n1-c1ccccc1 | 46.4 µM | 21.3 µM
3 | Cc1ccc(-c2cc3nc4ccccc4nc3c(=O)n2-c2ccccc2)cc1 | 39.6 µM | 23.7 µM
4 | CCOC(=O)c1nc2ccccc2nc1C#Cc1ccccc1OC | 7.9 µM | 11.6 µM
5 | CCOC(=O)c1nc2ccccc2nc1C#CC1CC1 | 7.6 µM | 6.2 µM
6 | CCOC(=O)c1nc2ccccc2nc1C#Cc1ccccc1C | 27 µM | 31.6 µM
7 | CCOC(=O)c1nc2ccccc2nc1C#Cc1cccc(F)c1 | 3 µM | 1.9 µM
8 | CCOC(=O)c1nc2ccccc2nc1C#Cc1ccc(C)cc1 | 3.3 µM | 3.3 µM
9 | CCOC(=O)c1nc2ccccc2nc1C#Cc1cccc(C)c1 | 6.5 µM | 5.5 µM
10 | O=c1c2nc3ccccc3nc2cc(-c2ccccc2)n1-c1ccc(Cl)cc1 | 43 µM | 34.6 µM
11 | CCOC(=O)c1nc2ccccc2nc1C#CC1CCCC1 | 11.2 µM | 11.4 µM
